For orientation: Ki means a measure of affinity in units of concentration, obtained from inhibition or displacement. Higher therefore signals a looser hold on the target.

This experiment concerns the target T1, Estrogen receptor (Homo sapiens, UniProt P03372).
T1 sequence (P03372 whole entry): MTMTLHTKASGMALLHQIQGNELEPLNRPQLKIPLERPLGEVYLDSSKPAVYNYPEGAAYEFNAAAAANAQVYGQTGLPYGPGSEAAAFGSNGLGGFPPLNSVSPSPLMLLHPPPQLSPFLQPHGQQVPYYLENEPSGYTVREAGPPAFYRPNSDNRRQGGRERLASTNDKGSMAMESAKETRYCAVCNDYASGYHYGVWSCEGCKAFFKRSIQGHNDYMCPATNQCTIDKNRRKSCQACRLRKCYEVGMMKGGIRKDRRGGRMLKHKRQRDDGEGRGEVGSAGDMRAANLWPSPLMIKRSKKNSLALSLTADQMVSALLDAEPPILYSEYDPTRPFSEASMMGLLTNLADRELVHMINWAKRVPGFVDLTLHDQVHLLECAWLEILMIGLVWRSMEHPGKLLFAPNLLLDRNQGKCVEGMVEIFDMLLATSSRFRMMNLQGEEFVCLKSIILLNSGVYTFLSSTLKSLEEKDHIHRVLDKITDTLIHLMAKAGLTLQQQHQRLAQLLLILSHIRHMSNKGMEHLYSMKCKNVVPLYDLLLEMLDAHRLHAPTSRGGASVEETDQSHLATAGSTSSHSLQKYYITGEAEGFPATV
As to the kind of experiment: Displacement of iodoacetamide-fluorescein-labeled SRC3 from ERalpha by TR-FRET assay.
Consider `COC(=O)C(N)CC1(C)CC2CCC1CC2C(C)(C)CCNC(=O)CCC(C)C` (stereo unspecified), for which affinity was put at a Ki of 32 µM.
Compound `COC(=O)C(CC1(C)CC2CCC1CC2C(C)(C)CCNC(=O)CCC(C)C)NC(=O)OCc1ccccc1` (stereo unspecified) had a Ki of 38 µM.
Take `CC[C@H](C)[C@H](NC(=O)[C@H](CCCCN)NC(=O)[C@H](Cc1c[nH]cn1)NC(=O)[C@H](CCCNC(=N)N)NC(=O)[C@H](CCC(=O)O)NC(=O)[C@@H](NC(=O)[C@@H](N)CC(C)C)[C@@H](C)O)C(=O)N[C@@H](CC(C)C)C(=O)N[C@@H](Cc1c[nH]cn1)C(=O)N[C@@H](CCCNC(=N)N)C(=O)N[C@@H](CC(C)C)C(=O)N[C@@H](CC(C)C)C(=O)N[C@@H](CCC(N)=O)C(=O)N[C@@H](CCC(=O)O)C(=O)NCC(=O)N[C@@H](CO)C(=O)N1CCC[C@H]1C(=O)N[C@@H](CO)C(=O)N[C@@H](CC(=O)O)C(=O)O`: the inhibition constant (Ki) amounted to 0.19 µM.
`COC(=O)C(=CC1(C)CC2C=CC1CC2C(C)(C)CCNC(=O)CCC(C)C)C(=O)OC` (stereo unspecified) displayed an inhibition constant (Ki) of 7.9 µM.
In turn, `COC(=O)C(CC1(C)CC2CCC1CC2C(C)(C)CCNC(=O)CCC(C)C)C(=O)OC` (stereo unspecified) came in with an inhibition constant (Ki) of 7.1 µM.
`COC(=O)C(CC1(C)CC2CCC1CC2C(C)(C)CCNC(=O)CCC(C)C)C(=O)O` (stereo unspecified): the affinity, expressed as Ki, was 12 µM.
